In data set [1] the target is T1, cytoplasmic domain of the human VEGF receptor (VEGFR-2) (Homo sapiens, UniProt P35968).
T1 construct: The cytoplasmic domain of the human VEGF receptor (VEGFR-2) was expressed as a Histidine-tagged fusion protein; His (Histidine tag); made in house; host or cells: insect cells (baculovirus)
The data set can be described thus: KDR Assay. Format: biochemical. The conditions noted are these: His-VEGFR-2; 3.6 μM ATP. As to the method: Automated FLIPR (Fluorometric Imaging Plate Reader) technology was used to screen for inhibitors of VEGF induced increases in intracellular calcium levels in fluorescent dye loaded endothelial cells. HUVEC (human umbilical vein endothelial cells) (Clonetics) were seeded in 96-well fibronectin coated black-walled plates overnight at 37° C./5% CO2. Cells were loaded with calcium indicator Fluo-4 for 45 minutes at 37° C. Cells were washed 4 times (Original Cell Wash, Labsystems) to remove extracellular dye. Test compounds were reconstituted in 100% DMSO and added to the cells to give a final DMSO concentration of 0.1%. For screening, cells were pre-incubated with test agents for 30 minutes, at a single concentration (10 μM) or at concentrations ranging from 0.01 to 10.0 μM followed by VEGF stimulation (5 ng/mL). Changes in fluorescence at 516 nm were measured simultaneously in all 96 wells using a cooled CCD camera. Data were generated by determining max-min fluorescence levels for unstimulated, stimulated, and drug treated samples. IC50 values for test compounds were calculated from % inhibition of VEGF stimulated responses in the absence of inhibitor. Protocol for KDR Assay: KDR Assay: The cytoplasmic domain of the human VEGF receptor (VEGFR-2) was expressed as a Histidine-tagged fusion protein following infection of insect cells using an engineered baculovirus. His-VEGFR-2 was purified to homogeneity, as determined by SDS-PAGE, using nickel resin chromatography. Kinase assays were performed in 96 well microtiter plates that were coated overnight with 30 μg of poly-Glu-Tyr (4:1) in 10 mM Phosphate Buffered Saline (PBS), pH 7.2-7.4. The plates were incubated with 1% BSA and then washed four times with PBS prior to starting the reaction. Reactions were carried out in 120 μL reaction volumes containing 3.6 μM ATP in kinase buffer (50 mM Hepes buffer pH 7.4, 20 mM MgCl2, 0.1 mM MnCl2 and 0.2 mM Na3VO4). Test compounds were reconstituted in 100% DMSO and added to the reaction to give a final DMSO concentration of 5%. Reactions were initiated by the addition 0.5 ng of purified protein. Following a ten minute incubation at 25° C., the reactions were washed four times with PBS containing 0.05% Tween-20. 100 μl of a monoclonal anti-phosphotyrosine antibody-peroxidase conjugate was diluted 1:10000 in PBS-Tween-20 and added to the wells for 30 minutes. […] The reaction was terminated by the addition of 100 μl of 2.5N H2SO4 to each well and read using a microplate ELISA reader set at 492 nm. IC50 values for compound inhibition were calculated directly from graphs of optical density (arbitrary units) versus compound concentration following subtraction of blank values. […]

Data set [2] has as its system VEGF induced increases in intracellular calcium levels in HUVEC (human umbilical vein endothelial cells). The data set can be described thus: VEGF Stimulated Ca++ Signal In Vitro (FLIPR). Conditions: VEGF 5 ng/mL; for IC50: 0.01 to 10.0 μM. Format: cell-based. How it is done: VEGF Stimulated Ca^++ Signal In Vitro
Automated FLIPR (Fluorometric Imaging Plate Reader) technology was used to screen for inhibitors of VEGF induced increases in intracellular calcium levels in fluorescent dye loaded endothelial cells. HUVEC (human umbilical vein endothelial cells) (Clonetics) were seeded in 96-well fibronectin coated black-walled plates overnight at 37° C./5% CO2. Cells were loaded with calcium indicator Fluo-4 for 45 minutes at 37° C. Cells were washed 4 times (Original Cell Wash, Labsystems) to remove extracellular dye. Test compounds were reconstituted in 100% DMSO and added to the cells to give a final DMSO concentration of 0.1%. For screening, cells were pre-incubated with test agents for 30 minutes, at a single concentration (10 μM) or at concentrations ranging from 0.01 to 10.0 μM followed by VEGF stimulation (5 ng/mL). Changes in fluorescence at 516 nm were measured simultaneously in all 96 wells using a cooled CCD camera. Data were generated by determining max-min fluorescence levels for unstimulated, stimulated, and drug treated samples. IC50 values for test compounds were calculated from % inhibition of VEGF stimulated responses in the absence of inhibitor. Protocol for KDR Assay: KDR Assay: The cytoplasmic domain of the human VEGF receptor (VEGFR-2) was expressed as a Histidine-tagged fusion protein following infection of insect cells using an engineered baculovirus. His-VEGFR-2 was purified to homogeneity, as determined by SDS-PAGE, using nickel resin chromatography. Kinase assays were performed in 96 well microtiter plates that were coated overnight with 30 μg of poly-Glu-Tyr (4:1) in 10 mM Phosphate Buffered Saline (PBS), pH 7.2-7.4. The plates were incubated with 1% BSA and then washed four times with PBS prior to starting the reaction. Reactions were carried out in 120 μL reaction volumes containing 3.6 μM ATP in kinase buffer (50 mM Hepes buffer pH 7.4, 20 mM MgCl2, 0.1 mM MnCl2 and 0.2 mM Na3VO4). Test compounds were reconstituted in 100% DMSO and added to the reaction to give a final DMSO concentration of 5%. Reactions were initiated by the addition 0.5 ng of purified protein. Following a ten minute incubation at 25° C., the reactions were washed four times with PBS containing 0.05% Tween-20. 100 μl of a monoclonal anti-phosphotyrosine antibody-peroxidase conjugate was diluted 1:10000 in PBS-Tween-20 and added to the wells for 30 minutes. Following four washes with PBS-Tween-20, 100 μl of O-phenylenediamine Dihydrochloride in Phosphate-citrate buffer, containing urea hydrogen peroxide, was added to the wells for 7 minutes as a colorimetric substrate for the peroxidase. The reaction was terminated by the addition of 100 μl of 2.5N H2SO4 to each well and read using a microplate ELISA reader set at 492 nm. IC50 values for compound inhibition were calculated directly from graphs of optical density (arbitrary units) versus compound concentration following subtraction of blank values. VEGF-induced Dermal Extravasation in Guinea Pig (Miles Assay). Male Hartley guinea pigs (300-600 g) were anesthetized with isofluorane, sheared, and given a single dose of drug or the respective vehicle. The guinea pigs were dosed orally unless indicated otherwise in Table 3. Ten minutes prior to the end of drug treatment, guinea pigs were anesthetized with isofluorane, and 0.5% Evans blue dye (EBD) in PBS (13-15 mg/kg dose of EBD) was injected intravenously. After 5 minutes, triplicate intradermal injections of 100 ng rhVEGF165 in 100 μl PBS and of 100 μl PBS alone were administered on the flank. After 20 minutes, each animal was euthanized with Pentosol, and the skin containing the intradermal injection sites was removed for image analysis.

Data set [3] concerns laser-induced choroidal neovascularization. The experiment in a line: Laser-induced Choroidal Neovascularization (CNV) in Rat (CNV Assay). It is filed as in vivo. As to the method: Laser-induced Choroidal Neovascularization (CNV) in Rat (CNV Assay). CNV was induced and quantified in this model as previously described (Edelman and Castro. Exp. Eye Res. 2000; 71:523-533). On day 0, male Brown Norway rats (200-300 g) were anesthetized with 100 mg/kg Ketamine and 10 mg/kg Xylazine, and pupils were dilated with 1% Tropicamide. Using the blue-green setting of a Coherent Novus Argon Laser, 3 laser burns (90 mW for 0.1 s; 100 μm diameter) were given to each eye between the retinal vessels around the optic nerve head. Rats were dosed with test compounds in their indicated vehicles orally once daily.
On day 10, rats were sacrificed with 100% CO2, and blood vessels were labeled by vascular perfusion with 10 mg/ml FITC-dextran (MW 2×10^6). Using an epifluorescence microscope (20×) coupled to a spot digital camera and a PC, images were obtained from the flat mounts of the RPE-choroid-sclera from each eye, and the area occupied by hyperfluorescent neovessels within each laser lesion was measured using ImagePro 4 software.
To determine the dose required for 50% inhibition (ID50), the percent inhibition data was plotted as a function of oral dose, using the ‘best-fit’ analysis within MicroSoft Excel software. The ID50 value was verified visually by using the plotted data (horizontal line from 50% y value, at intersection with best-fit line drop vertical line to x axis (dose)).

T1 sequence (P35968 786-1356 limits assumed): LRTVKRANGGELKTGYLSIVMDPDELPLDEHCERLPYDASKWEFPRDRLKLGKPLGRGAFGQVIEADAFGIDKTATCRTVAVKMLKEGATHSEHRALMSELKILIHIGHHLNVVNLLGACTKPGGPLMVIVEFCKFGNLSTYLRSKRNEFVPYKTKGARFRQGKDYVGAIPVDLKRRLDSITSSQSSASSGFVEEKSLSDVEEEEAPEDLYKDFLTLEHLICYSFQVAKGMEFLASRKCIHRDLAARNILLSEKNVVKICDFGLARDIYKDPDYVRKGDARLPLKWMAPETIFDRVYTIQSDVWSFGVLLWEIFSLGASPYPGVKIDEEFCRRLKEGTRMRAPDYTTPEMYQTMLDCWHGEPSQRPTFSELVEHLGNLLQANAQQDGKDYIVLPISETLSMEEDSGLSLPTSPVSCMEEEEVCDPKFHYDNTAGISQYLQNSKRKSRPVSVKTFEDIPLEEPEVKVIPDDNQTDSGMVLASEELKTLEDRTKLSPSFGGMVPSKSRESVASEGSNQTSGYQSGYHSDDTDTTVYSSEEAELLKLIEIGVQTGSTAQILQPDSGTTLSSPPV

Regarding “4-(5-Chloro-2-oxo-1,2-dihydro-indol-3-ylidenemethyl)-6-indazolylamine [Example 103]”, the half-inhibitory concentration (IC50) (commonly the concentration that inhibits the measured activity by half) in data set [1] came to 480 nM. For the same compound, in data set [2], the “VEGF Stimulated Ca^++ signal assay % inhibition @ 10 μM” value is on record as 96.59% and the IC50 turned out to be 1040 nM.

Turning to `O=C1Nc2ccccc2C1=CNc1cccc(Br)c1` [Example 2], the “VEGF Stimulated Ca^++ signal assay % inhibition @ 10 μM” value in data set [2] is −0.5%.

On to `O=C1Nc2ccccc2C1=CNc1ccc(N2CCOCC2)cc1` [Example 40], for which the “CNV Assay % inhibition (result in words)” value in data set [3] (100 mg/kg (sid), PEG400, oral) is listed as “toxic”.

Consider `CC(O)c1ccc(NC=C2C(=O)Nc3ccc(Cl)cc32)cc1` (stereo not shown) [Example 72, 5-Chloro-3-{[4-(1-hydroxy-ethyl)-phenylamino]-methylene}-1,3-dihydro-indol-2-one], for which, in data set [2], the “VEGF Stimulated Ca^++ signal assay % inhibition @ 10 μM” value stood at 81.50% and the 50% inhibitory concentration (IC50) came to 1560 nM.

Take `O=C1Nc2ccccc2C1=CNc1ccc2c(c1)OCO2` [Example 80, 3-[(3,4-Methylenedioxyphenylamino)-methylene]-11,3-dihydro-indol-2-one]: in data set [2], the “VEGF Stimulated Ca^++ signal assay % inhibition @ 10 μM” value stood at 3.50%.

`COc1ccc(NC=C2C(=O)Nc3ccc(Cl)cc32)cc1F` [Example 105, 5-Chloro-3-[(3-fluoro-4-methoxyphenylamino)-methylene]-1,3-dihydro-indol-2-one]: in data set [2] (Homo sapiens), the inhibition – broadly, how much of the control response was suppressed – at 10 µM came out at 17.5%.

`Cc1cccc2c1C(=CNc1ccc(C(=O)O)c(O)c1)C(=O)N2` [Example 155, 2-Hydroxy-4-[(4-methyl-2-oxo-1,2-dihydro-indol-3-ylidenemethyl)-amino]-benzoic acid] returned a concentration for half-maximal inhibition (IC50) in data set [1] of 400 nM.

As to `CCN(CC)Cc1cc(NC=C2C(=O)Nc3cccc(C)c32)ccc1O` [Example 161, 3-[(3-Diethylaminomethyl-4-hydroxy-phenylamino)-methylene]-4-methyl-1,3-dihydro-indol-2-one], the IC50 in data set [1] turned out to be 160 nM.

For the compound `CCN(CC)CCCOc1ccc(NC=C2C(=O)Nc3ccccc32)cc1` [Example 214, 3-{[4-(3-Diethylamino-propoxy)-phenylamino]-methylene}-1,3-dihydro-indol-2-one], the inhibition in vivo – broadly, the drop in the measured response relative to a control, in per cent – at 80 mg/kg in data set [3] (Rattus norvegicus, 240 h, 80 mg/kg (sid), corn oil, oral) came to 85%.

As for `O=C1Nc2ccc(F)cc2C1=CNc1ccc(N2CCCCC2)cc1` [Example 221], the IC50 in data set [1] was 380 nM; in data set [2] (Homo sapiens) it was ≤ 1000 nM. The inhibition at 10 µM in data set [2] (Homo sapiens) came to 97.6%.

In the case of `Cc1cccc2c1C(=CNc1ccc(NCCN3CCOCC3)cc1)C(=O)N2` [Example 242, 4-Methyl-3-{[4-(2-morpholin-4-yl-ethylamino)-phenylamino]-methylene}-1,3-dihydro-indol-2-one], in data set [2], the “VEGF Stimulated Ca^++ signal assay % inhibition @ 10 μM” value is given as 95.82%.

Source of the values: patent US7414054B2, “3-(arylamino)methylene-1, 3-dihydro-2H-indol-2-ones as kinase inhibitors” (Allergan, Inc., priority 2001, dated 2008).
